Laboratory results from patent US11932636B2, “RAD51 inhibitors” (Cyteir Therapeutics, Inc., priority 2019, dated 2024).
Where two headings read alike, the source gives them in different places.

System: Daudi cells (AID positive)
Assay: Compound primary screening: cell death in AID positive Daudi cells (Cell-Titer Glo, Day 7)
Format: cell-based
Conditions: Homo sapiens, 168 h, read-out: Cellular activity in AID + (Daudi)
In short: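 AID-positive Daudi cells were seeded at 1250 cells per well and treated with serially diluted compound delivered from a DMSO/media master plate. Cultures were incubated at 37 °C, and cell death was measured on Day 7 with Cell-Titer Glo luminescence.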

[1] = Daudi cells, AID positive, cell death on Day 7, Cell-Titer Glo

Structure (SMILES)	EC50 [1] [nM]	EC50 (Daudi) [nM]
CCNS(=O)(=O)c1cc(CC(=O)N2CCOCC2)ccc1-c1cnc([C@H]2CC[C@H](NC(=O)OC(C)C)CC2)s1 [Compound 84, isopropyl trans-N-[4-[5-[4-[2-oxo-2-(morpholin-4-yl)ethyl]-2-(ethyl-sulfamoyl)phenyl]thiazol-2-yl]cyclohexyl]carbamate]	100 to 1000	–
CCNS(=O)(=O)c1cc(CC(=O)N2CC(O)C2)ccc1-c1cnc([C@H]2CC[C@H](NC(=O)OC(C)C)CC2)s1 [Compound 85, isopropyl trans-N-[4-[5-[4-[2-oxo-2-(3-hydroxyazetidin-1-yl)ethyl]-2-(ethyl-sulfamoyl)phenyl]thiazol-2-yl]cyclohexyl]carbamate]	100 to 1000	–
CCNS(=O)(=O)c1cc(CC(N)=O)ccc1-c1cnc([C@H]2CC[C@H](NC(=O)OC(C)C)CC2)s1 [Compound 86, isopropyl trans-N-[4-[5-[4-[2-amino-2-oxo-ethyl]-2-(ethyl-sulfamoyl)phenyl]thiazol-2-yl]cyclohexyl]carbamate]	100 to 1000	–
CCNS(=O)(=O)c1cc(CC(=O)N2CCC2)ccc1-c1cnc([C@H]2CC[C@H](NC(=O)OC(C)C)CC2)s1 [Compound 87, isopropyl trans-N-[4-[5-[4-[2-oxo-2-(azetidin-1-yl)ethyl]-2-(ethyl-sulfamoyl)phenyl]thiazol-2-yl]cyclohexyl]carbamate]	100 to 1000	–
CC(C)OC(=O)N[C@H]1CC[C@H](c2ncc(-c3ccc(N)cc3S(=O)(=O)N3CCCC3)s2)CC1 [Compound 88, isopropyl trans-N-[4-[5-(4-amino-2-pyrrolidin-1-ylsulfonyl-phenyl)thiazol-2-yl]cyclohexyl]carbamate]	100 to 1000	–
CNc1ccc(-c2cnc([C@H]3CC[C@H](NC(=O)OC(C)C)CC3)s2)c(S(=O)(=O)N2CCCC2)c1 [Compound 89, isopropyl trans-N-[4-[5-(4-(methylamino)-2-pyrrolidin-1-ylsulfonyl-phenyl)thiazol-2-yl]cyclohexyl]carbamate]	100 to 1000	–
CC(C)OC(=O)N[C@H]1CC[C@H](c2ncc(-c3ccc(Nc4ncc[nH]4)cc3S(N)(=O)=O)s2)CC1 [Compound 90, isopropyl trans-N-[4-[5-[4-(1H-imidazol-2-ylamino)-2-sulfamoyl-phenyl]thiazol-2-yl]cyclohexyl]carbamate]	100 to 1000	–
CC(C)OC(=O)N[C@H]1CC[C@H](c2ncc(-c3ccc(Nc4ncc[nH]4)cc3S(=O)(=O)N(C)C)s2)CC1 [Compound 91, isopropyl trans-N-[4-[5-[2-(dimethylsulfamoyl)-4-(1H-imidazol-2-ylamino)phenyl]thiazol-2-yl]cyclohexyl]carbamate]	100 to 1000	–
CC(C)OC(=O)N[C@H]1CC[C@H](c2ncc(-c3ccc(Nc4ncc[nH]4)cc3S(=O)(=O)N3CCCC3)s2)CC1 [Compound 92, isopropyl trans-N-[4-[5-[4-(1H-imidazol-2-ylamino)-2-pyrrolidin-1-ylsulfonyl-phenyl]thiazol-2-yl]cyclohexyl]carbamate]	100 to 1000	–
CNS(=O)(=O)c1ccccc1-c1cnc([C@H]2CC[C@H](NC(=O)OC(C)C)CC2)s1 [Compound 93, isopropyl trans-N-[4-[5-(2-methylsulfamoylphenyl)thiazol-2-yl]cyclohexyl]carbamate]	1000 to 10000	–
CCNS(=O)(=O)c1cc(C(=O)Nc2ncc[nH]2)ccc1-c1cnc([C@H]2CC[C@H](NC(=O)OC(C)C)CC2)s1 [Compound 94, isopropyl trans-N-[4-[5-[2-(ethylsulfamoyl)-4-(1H-imidazol-2-ylcarbamoyl)phenyl]thiazol-2-yl]cyclohexyl]carbamate]	< 100	–
CCNS(=O)(=O)c1cc(C(=O)N2CCCC2)ccc1-c1cnc([C@H]2CC[C@H](NC(=O)OC(C)C)CC2)s1 [Compound 95, isopropyl trans-N-[4-[5-[4-pyrrolidin-1-ylcarbonyl-2-(ethylsulfamoyl)phenyl]thiazol-2-yl]cyclohexyl]carbamate]	100 to 1000	–
CCNS(=O)(=O)c1cc(CC(=O)NC(C)C)ccc1-c1cnc(N2CCN(C(=O)OC3COC3)CC2)s1 [Compound 96, oxetan-3-yl 4-(5-(2-(N-ethylsulfamoyl)-4-(2-(isopropylamino)-2-oxoethyl)phenyl)thiazol-2-yl)piperazine-1-carboxylate]	> 10000	–
CC(C)OC(=O)N[C@H]1CC[C@H](c2ncc(-c3ccc(CC(=O)NCc4ccccc4)cc3S(=O)(=O)NC(C)(C)C)s2)CC1 [Compound 97, isopropyl trans-N-[4-[5-[4-[2-(benzylamino)-2-oxo-ethyl]-2-(tert-butylsulfamoyl)phenyl]thiazol-2-yl]cyclohexyl]carbamate]	< 100	–
CC(C)(C)NS(=O)(=O)c1cc(CC(=O)NCc2ccccc2)ccc1-c1cnc([C@H]2CC[C@H](NC(=O)OC3COC3)CC2)s1 [Compound 98, oxetan-3-yl trans-N-[4-[5-[4-[2-(benzylamino)-2-oxo-ethyl]-2-(tert-butylsulfamoyl)phenyl]thiazol-2-yl]cyclohexyl]carbamate]	< 100	–
CCNS(=O)(=O)c1cc(OCCC(C)C)ccc1-c1cnc([C@H]2CC[C@H](NC(=O)OC(C)C)CC2)s1 [Compound 99, isopropyl trans-N-[4-[5-[2-(ethylsulfamoyl)-4-isopentyloxy-phenyl]thiazol-2-yl]cyclohexyl]carbamate]	100 to 1000	–
CCNS(=O)(=O)c1cc(OCCC(C)C)ccc1-c1cnc([C@H]2CC[C@H](NC(=O)OC3COC3)CC2)s1 [Compound 100, oxetan-3-yl trans-N-[4-[5-[2-(ethylsulfamoyl)-4-isopentyloxy-phenyl]thiazol-2-yl]cyclohexyl]carbamate]	100 to 1000	–
CC(C)CCOc1ccc(-c2cnc([C@H]3CC[C@H](NC(=O)OC(C)C)CC3)s2)c(S(=O)(=O)NC(C)(C)C)c1 [Compound 101, isopropyl trans-N-[4-[5-[2-(tert-butylsulfamoyl)-4-isopentyloxy-phenyl]thiazol-2-yl]cyclohexyl]carbamate]	1000 to 10000	–
CC(C)CCOc1ccc(-c2cnc([C@H]3CC[C@H](NC(=O)OC4COC4)CC3)s2)c(S(=O)(=O)NC(C)(C)C)c1 [Compound 102, oxetan-3-yl trans-N-[4-[5-[2-(tert-butylsulfamoyl)-4-isopentyloxy-phenyl]thiazol-2-yl]cyclohexyl]carbamate]	1000 to 10000	–
CCNS(=O)(=O)c1cc(Cc2ncco2)ccc1-c1cnc([C@H]2CC[C@H](NC(=O)OC(C)C)CC2)s1 [Compound 103, isopropyl trans-N-[4-[5-[2-(ethylsulfamoyl)-4-(oxazol-2-ylmethyl)phenyl]thiazol-2-yl]cyclohexyl]carbamate]	–	100 to 1000
CCNS(=O)(=O)c1cc(-c2ncco2)ccc1-c1cnc([C@H]2CC[C@H](NC(=O)OC(C)C)CC2)s1 [Compound 104, isopropyl trans-N-[4-[5-[2-(ethylsulfamoyl)-4-oxazol-2-yl-phenyl]thiazol-2-yl]cyclohexyl]carbamate]	–	100 to 1000
CCNS(=O)(=O)c1cc(Nc2nccn2C)ccc1-c1cnc([C@H]2CC[C@H](NC(=O)OC(C)C)CC2)s1 [Compound 105, isopropyl trans-N-[4-[5-[2-(ethylsulfamoyl)-4-[(1-methylimidazol-2-yl)amino]phenyl]thiazol-2-yl]cyclohexyl]carbamate]	< 100	–
CCNS(=O)(=O)c1cc(Nc2nccn2C)ccc1-c1cnc([C@H]2CC[C@@H](NC(=O)OC(C)C)CC2)s1 [Compound 106, isopropyl cis-N-[4-[5-[2-(ethylsulfamoyl)-4-[(1-methylimidazol-2-yl)amino]phenyl]thiazol-2-yl]cyclohexyl]carbamate]	< 100	–
CCNS(=O)(=O)c1cc(Nc2nccn2CC(C)C)ccc1-c1cnc([C@H]2CC[C@H](NC(=O)OC(C)C)CC2)s1 [Compound 107, isopropyl trans-N-[4-[5-[2-(ethylsulfamoyl)-4-[(1-isobutylimidazol-2-yl)amino]phenyl]thiazol-2-yl]cyclohexyl]carbamate]	< 100	–
CCNS(=O)(=O)c1cc(N)ccc1-c1cnc([C@H]2CC[C@H](NC(=O)OC3CC3)CC2)s1 [Compound 108, cyclopropyl trans-N-[4-[5-[4-amino-2-(ethylsulfamoyl)phenyl]thiazol-2-yl]cyclohexyl]carbamate]	< 100	–
CCNS(=O)(=O)c1cc(Nc2ncc[nH]2)ccc1-c1cnc([C@H]2CC[C@H](NC(=O)OC3CC3)CC2)s1 [Compound 109, cyclopropyl trans-N-[4-[5-[2-(ethylsulfamoyl)-4-(1H-imidazol-2-ylamino)phenyl]thiazol-2-yl]cyclohexyl]carbamate]	–	100 to 1000
CC(C)OC(=O)N[C@H]1CC[C@@H](c2ncc(-c3ccc(Nc4ncc[nH]4)cc3S(=O)(=O)NC(C)(C)C)s2)CC1 [Compound 110, isopropyl cis-N-[4-[5-[2-(tert-butylsulfamoyl)-4-(1H-imidazol-2-ylamino)phenyl]thiazol-2-yl]cyclohexyl]carbamate]	100 to 1000	–
CCNS(=O)(=O)c1cc(Nc2cc(C(C)C)ccn2)ccc1-c1cnc([C@H]2CC[C@H](NC(=O)OC(C)C)CC2)s1 [Compound 111, isopropyl trans-N-[4-[5-[2-(ethylsulfamoyl)-4-[(4-isopropyl-2-pyridyl)amino]phenyl]thiazol-2-yl]cyclohexyl]carbamate]	100 to 1000	–
CCNS(=O)(=O)c1cc(Nc2cccc(C(C)C)n2)ccc1-c1cnc([C@H]2CC[C@H](NC(=O)OC(C)C)CC2)s1 [Compound 112, isopropyl trans-N-[4-[5-[2-(ethylsulfamoyl)-4-[(6-isopropyl-2-pyridyl)amino]phenyl]thiazol-2-yl]cyclohexyl]carbamate]	< 100	–
CCNS(=O)(=O)c1cc(Nc2ccc(C(C)C)cn2)ccc1-c1cnc([C@H]2CC[C@H](NC(=O)OC(C)C)CC2)s1 [Compound 113, isopropyl trans-N-[4-[5-[2-(ethylsulfamoyl)-4-[(5-isopropyl-2-pyridyl)amino]phenyl]thiazol-2-yl]cyclohexyl]carbamate]	< 100	–
